Assay results reported in patent US20250235422A1 (BiomEdit, Inc., priority 2024, published 2025).
Entries after “also recorded” stand apart in the source; their conditions may differ.

target: T1, AHR (Homo sapiens, UniProt P35869); assay: not given; settings: AHR ligand activity; Table 1 reproduced from Barroso A et al., 2021; cited from earlier work
T1 sequence (P35869 11-848): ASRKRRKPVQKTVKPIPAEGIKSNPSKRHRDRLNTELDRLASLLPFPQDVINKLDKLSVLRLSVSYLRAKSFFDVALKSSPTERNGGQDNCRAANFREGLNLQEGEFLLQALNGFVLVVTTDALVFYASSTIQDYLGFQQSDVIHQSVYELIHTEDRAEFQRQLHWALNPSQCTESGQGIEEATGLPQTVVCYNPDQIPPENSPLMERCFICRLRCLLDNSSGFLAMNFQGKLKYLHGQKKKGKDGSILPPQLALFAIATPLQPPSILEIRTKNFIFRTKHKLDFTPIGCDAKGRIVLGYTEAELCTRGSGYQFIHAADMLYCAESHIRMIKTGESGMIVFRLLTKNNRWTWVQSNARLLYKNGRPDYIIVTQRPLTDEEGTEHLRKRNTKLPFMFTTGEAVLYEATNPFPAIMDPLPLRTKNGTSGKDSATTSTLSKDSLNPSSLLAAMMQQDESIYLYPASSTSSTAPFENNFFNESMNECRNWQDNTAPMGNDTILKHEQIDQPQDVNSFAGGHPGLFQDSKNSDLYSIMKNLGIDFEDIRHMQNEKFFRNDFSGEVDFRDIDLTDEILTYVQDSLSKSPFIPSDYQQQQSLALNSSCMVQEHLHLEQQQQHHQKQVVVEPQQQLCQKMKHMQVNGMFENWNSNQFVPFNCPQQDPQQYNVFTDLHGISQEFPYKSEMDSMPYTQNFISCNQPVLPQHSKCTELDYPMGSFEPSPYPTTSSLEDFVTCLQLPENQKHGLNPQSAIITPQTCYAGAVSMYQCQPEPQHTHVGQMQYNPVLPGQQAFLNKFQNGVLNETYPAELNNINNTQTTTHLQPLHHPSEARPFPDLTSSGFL

| Compound | Activity |
| --- | --- |
| O=S(=O)(O)Oc1c[nH]c2ccccc12 [Indoxyl-3-sulfate (I3S), Indoxyl-3-sulfate] | Agonist |
| O=C(O)c1cc(O)c2ccccc2c1O [1,4-dihydroxy-2-naphthoic acid (DHNA), 1,4-dihydroxy-2-naphthoic acid] | Agonist |
| CC(C)c1c(O)cc(/C=C/c2ccccc2)cc1O [Tapinarof, 3,5-dihydroxy-4-isopropyl-trans-stilbene] | Agonist |
| CC1=C(CC(=O)O)c2cc(F)ccc2/C1=C\c1ccc([S+](C)[O-])cc1 (stereo not shown) [Sulindac] | Agonist |
| C=CC1=C(C)/C(=C/C2=NC(=C\c3[nH]c(/C=C4\NC(=O)C(C)=C4C=C)c(C)c3CCC(=O)O)/C(CCC(=O)O)=C2C)NC1=O [Biliverdin] | Agonist |
| Cc1ccc2cc3c(ccc4ccccc43)c3c2c1CC3 [3-Methylcholanthrene] | Agonist |
| Cc1ccccc1N=Nc1ccc(NC(=O)c2ccnn2C)c(C)c1 [CH-223191] | AntAgonist |
| O=c1cc(-c2ccccc2)oc2ccc3ccccc3c12 [Beta-naphthoflavone] | Agonist |
| N#CCc1c[nH]c2ccccc12 [Indole-3-acetonitrile (IAN), Indole-3-acetonitrile] | Agonist |
| Cc1c[nH]c2ccccc12 [3-Methylindole (Skatole), 3-Methylindole] | Partial |
| c1ccc2c(Cc3c[nH]c4ccccc34)c[nH]c2c1 [3,3-diindolylmethane (DIM), 3,3-diindolylmethane] | Agonist |
| Nc1ccccc1C(=O)C[C@H](N)C(=O)O [L-Kynurenine (Kyn), L-Kynurenine] | Agonist |
| O=Cc1c(Cc2c[nH]c3ccccc23)[nH]c2ccccc12 [Malassezin] | Agonist |
| c1ccc2c(c1)N=c1cc3c(cc1-2)=Nc1ccccc1-3 [Indolo [3,2-b]carbazole (ICZ), Indolo [3,2-b]carbazole] | Agonist |
| COC(=O)c1csc(C(=O)c2c[nH]c3ccccc23)n1 [2-(19H-indole-39-carbonyl)-thiazole-4-carboxylic acid methyl ester] | Agonist |
| COc1cc(-c2cc(=O)c3ccccc3o2)ccc1[N+](=O)[O-] [3′-methoxy-4′-nitroflavone (MNF), 3′-methoxy-4′-nitroflavone] | Antagonist |
| O=C(O)[C@H]1O[C@@H](Oc2cc3oc(-c4ccccc4)cc(=O)c3c(O)c2O)[C@H](O)[C@@H](O)[C@@H]1O [Baicalin] | AntAgonist |
| CCCCC/C=C\C[C@@H](O)/C=C/C=C\C/C=C\CCCC(=O)O | Agonist |

| Compound | Activity |
| --- | --- |
| O=C1c2ccccc2-n2c1nc1ccccc1c2=O [Tryptanthrin] | Agonist |
| NCCc1c[nH]c2ccccc12 [Tryptamine] | Agonist |
| c1ccc2c(Cc3[nH]c4ccccc4c3Cc3c[nH]c4ccccc34)c[nH]c2c1 [2-(Indol-3-ylmethyl)-3,39-diindolylmethane] | Agonist |
| N[C@@H](Cc1c[nH]c2ccc(O)cc12)C(=O)O [5-hydroxytryptophan (5HTP), 5-hydroxytryptophan] | Agonist |
| O=Cc1c2c(cc3c1=Nc1ccccc1-3)=Nc1ccccc1-2 [6-Formylindolo [3,2-b] carbazole (FICZ), 6-Formylindolo [3,2-b] carbazole] | Agonist |
| O=C(O)c1cc(O)c2cccc(O)c2n1 [Xanthurenic acid] | Agonist |
| OCc1c[nH]c2ccccc12 [Indole-3-carbinol (I3C), Indole-3-carbinol] | Agonist |
| FC(F)(F)c1ccc(Nc2nccc(-c3cccc(Cl)c3)n2)cc1 [VAF347] | Agonist |
| O=c1c(O)c(-c2ccc(O)c(O)c2)oc2cc(O)cc(O)c12 [Quercetin] | Partial |
| CC(C)c1cnn2c(N[C@@H]3CCc4[nH]c5ccccc5c4C3)nc(-c3cncc(F)c3)nc12 [AHR antagonist 5 (IK-775)] | Antagonist |
| Cc1cc(Cl)cc2c1oc1cc(Cl)cc(Cl)c12 [6-Methyl-1,3,8-trichlorodibenzofuran] | Partial |
| Nc1c(C(=O)O)c2nc3c(C(=O)O)cccc3oc-2cc1=O [Cinnabarinic acid (CA), Cinnabarinic acid] | Agonist |
| CC(C)n1cnc2c(NCCc3ccc(O)cc3)nc(-c3csc4ccccc34)nc21 [StemRegenin 1 (SR1), StemRegenin 1] | AntAgonist |
| CCCCC[C@H](O)/C=C/C=C\C=C\C=C\[C@@H](O)[C@@H](O)CCCC(=O)O [Lipoxin A4] | Agonist |
| COc1ccc(-c2cc(=O)c3ccccc3o2)cc1OC [3′4′-Dimethoxyflavone] | Partial |
| O=Cc1c[nH]c2ccccc12 [Indole-3-aldehyde (I3CA), Indole-3-aldehyde] | Agonist |
| COc1cc2c(cc1O)C[C@@H]1NCCc3cc(OC)c(O)c-2c31 [Norisoboldine] | Agonist |
| Clc1cc2c(cc1Cl)Oc1cc(Cl)c(Cl)cc1O2 [2,3,7,8-Tetrachlorodibenzop-dioxin] | Agonist |

same assay, conditions: cited from earlier work

| Compound | Activity |
| --- | --- |
| O=C(O)Cc1ccccc1Nc1c(Cl)cccc1Cl [Diclofenac] | Agonist |
| c1ccc2[nH]ccc2c1 [Indole] | Agonist |

test system: not listed separately; assay: Light stability and hydrophobicity observed during development; type: physicochemical; settings: light exposure

| Compound | photostability |
| --- | --- |
| CC=CC=CC=CC=CC=CC(=O)O [DDPA, dodeca-2,4,6,8,10-pentaenoic acid] | photolabile; also recorded: photodecomposition leads to a loss of potency |

test system: psoriasis and AD; assay: not given; settings: humans; cited from earlier work

| Compound | effectiveness for treatment of psoriasis and AD |
| --- | --- |
| CC(C)c1c(O)cc(/C=C/c2ccccc2)cc1O [Tapinarof, 3,5-dihydroxy-4-isopropyl-trans-stilbene] | effective |
